{"source": "patent US20070129320A9", "about": "“Methods and compositions for inducing innate immune responses” (Coley Pharmaceutical Group, Ltd., priority 2004, published 2007)", "key": {"[1]": {"tested_on": "Renca (renal carcinoma) cells", "assay": "Renal cell carcinoma (Renca) tumor model in mice: survival and tumor growth", "details": "co-administration of immune stimulating complex (ISCOMATRIX adjuvant) with ODN 7909, compared with either agent alone", "procedure": "• Mice: All experiments were carried out using female BALB/c mice aged 6-8 weeks with 10 mice per experimental or control group. • Oligonucleotides: All oligonucleotides were obtained from Coley Pharmaceutical GmbH, Langenfeld, Germany. • Immune stimulating complexes: ISCOMATRIX® adjuvant, herein referred to as IMX, was the immune stimulating complex used in these Examples.\nFemale BALB/c mice (n=10 per group) were injected with 2×10^5 Renca (renal carcinoma) cells by SC injection into the left flank. Animals were treated with CpG 7909 alone, ISCOMATRIX® (IMX) alone or a combination of CpG 7909 and INIX administered by SC injection into the tumor perimeter weekly from day 10-28 post tumor cell injection. Control animals were injected with 100 μl of phosphate buffered saline (PBS) weekly from day 10-38 post tumor cell injection. Animals were monitored for survival (FIG. 1, panel A) and tumor growth (FIG. 1, panel B). Tumor size (length and width) was measured using a digital vernier calliper. Tumor volume was calculated by using the formula: Tumor volume=(0.4) (ab2), where a=large diameter and b=smaller diameter. In the tumor volume graph (FIG. 1, panel B), changes in average tumor volume are indicated until 50% death in each animal group."}, "murine cancer models": {"tested_on": "murine cancer models", "details": "cited from earlier work"}}, "data": [{"sequence": "TCGTCGTTTTGTCGTTTTGTCGTT [CpG 7909]", "values": [{"measurement": "survival", "setting": "[1]", "result": "increased survival"}, {"measurement": "tumor growth", "setting": "[1]", "result": "controlled tumor growth better than did either agent alone"}, {"measurement": "anti-tumor effects", "setting": "murine cancer models; several murine cancer models, demonstrated previously", "result": "demonstrated previously"}, {"measurement": "effect on anti-tumor effects of chemotherapeutic drugs", "setting": "murine cancer models; shown previously", "result": "augment the anti-tumor effects of some chemotherapeutic drugs"}]}]}
